Laboratory results as given in patent publication US4230692A, “Ravidomycin and process of preparation” (Ayerst McKenna & Harrison, Inc., priority 1978, dated 1980).

Tests used:
colon 38 tumor = test: Colon 38 tumor weight in mice; format: in vivo; settings: dose level 25 mg/kg; evaluated on 20th day of implantation in mice
Method: (j) Ravidomycin causes 50% reduction in colon 38 tumor weight at dose level of 25 mg/kg. evaluated on 20th day of implantation in mice.

[1] = Solubility in organic solvents
[2] = Acute intraperitoneal LD50 in mice; settings: mouse, in vivo, ip, LD50, acute, per body weight
mice = test: Acute intraperitoneal LD50 in mice; settings: acute, i.p., per body weight
[3] = system: Streptomyces ravidus NRRL 11,300; test: Streptomycin resistance of the producing organism; settings: 10 μg streptomycin per ml

Row | SMILES | reduction in colon 38 tumor weight (colon 38 tumor) | solubility ([1]; in acetone, methanol, ethanol, chloroform) | solubility ([1]; in diethyl ether) | LD50 [2] | LD50 (mice) | LD50 (mice; listed as Ravidomycin) | resistance of Streptomyces ravidus to streptomycin [3] | resistance of Streptomyces ravidus to streptomycin ([3]; listed as Streptomycin)
1 | C=Cc1cc(OC)c2c(c1)c(=O)oc1c2cc(OC)c2c(O)ccc(C3OC(C)C(OC(C)=O)C(N(C)C)C3O)c21 (centres unmarked) [ravidomycin] | 50% | soluble | sparingly soluble | > 400 mg/kg | greater than 400 mg/kg | 400 mg/kg |  | 
2 | [H]/N=C(/N)N[C@H]1[C@H](O)[C@@H](O)[C@H](O[C@@H]2O[C@@H](C)[C@](O)(C=O)[C@H]2O[C@@H]2O[C@@H](CO)[C@H](O)[C@@H](O)[C@@H]2NC)[C@@H](N/C(N)=N\[H])[C@@H]1O [streptomycin] |  |  |  |  |  |  | resistant | Resistant
